Laboratory results reported in patent US20240391875A1, “ISOQUINOLINONES AND QUINOLINONES AS MODULATORS OF POLRMT” (Pretzel Therapeutics, Inc., priority 2021, published 2024).

target: POLRMT (Homo sapiens, UniProt O00411); experiment: homogeneous TR-FRET assay of mitochondrial transcription (inhibition of POLRMT); assay type: biochemical; details: isoquinolinone compounds (Table 1)
Summary of the method: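 Recombinant POLRMT (7.5 nM) with TFB2M, TFAM and linearized LSP plasmid template, 500 μM NTPs, pH 7.5 Mg buffer; 60 min at 37° C. Reaction stopped with EDTA/high-salt buffer, 407 bp RNA transcript detected by hybridized ATTO647/Europium-cryptate probe pair; TR-FRET 665/620 nm ratio taken as transcript yield.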

POLRMT, sequence (O00411 42-1230): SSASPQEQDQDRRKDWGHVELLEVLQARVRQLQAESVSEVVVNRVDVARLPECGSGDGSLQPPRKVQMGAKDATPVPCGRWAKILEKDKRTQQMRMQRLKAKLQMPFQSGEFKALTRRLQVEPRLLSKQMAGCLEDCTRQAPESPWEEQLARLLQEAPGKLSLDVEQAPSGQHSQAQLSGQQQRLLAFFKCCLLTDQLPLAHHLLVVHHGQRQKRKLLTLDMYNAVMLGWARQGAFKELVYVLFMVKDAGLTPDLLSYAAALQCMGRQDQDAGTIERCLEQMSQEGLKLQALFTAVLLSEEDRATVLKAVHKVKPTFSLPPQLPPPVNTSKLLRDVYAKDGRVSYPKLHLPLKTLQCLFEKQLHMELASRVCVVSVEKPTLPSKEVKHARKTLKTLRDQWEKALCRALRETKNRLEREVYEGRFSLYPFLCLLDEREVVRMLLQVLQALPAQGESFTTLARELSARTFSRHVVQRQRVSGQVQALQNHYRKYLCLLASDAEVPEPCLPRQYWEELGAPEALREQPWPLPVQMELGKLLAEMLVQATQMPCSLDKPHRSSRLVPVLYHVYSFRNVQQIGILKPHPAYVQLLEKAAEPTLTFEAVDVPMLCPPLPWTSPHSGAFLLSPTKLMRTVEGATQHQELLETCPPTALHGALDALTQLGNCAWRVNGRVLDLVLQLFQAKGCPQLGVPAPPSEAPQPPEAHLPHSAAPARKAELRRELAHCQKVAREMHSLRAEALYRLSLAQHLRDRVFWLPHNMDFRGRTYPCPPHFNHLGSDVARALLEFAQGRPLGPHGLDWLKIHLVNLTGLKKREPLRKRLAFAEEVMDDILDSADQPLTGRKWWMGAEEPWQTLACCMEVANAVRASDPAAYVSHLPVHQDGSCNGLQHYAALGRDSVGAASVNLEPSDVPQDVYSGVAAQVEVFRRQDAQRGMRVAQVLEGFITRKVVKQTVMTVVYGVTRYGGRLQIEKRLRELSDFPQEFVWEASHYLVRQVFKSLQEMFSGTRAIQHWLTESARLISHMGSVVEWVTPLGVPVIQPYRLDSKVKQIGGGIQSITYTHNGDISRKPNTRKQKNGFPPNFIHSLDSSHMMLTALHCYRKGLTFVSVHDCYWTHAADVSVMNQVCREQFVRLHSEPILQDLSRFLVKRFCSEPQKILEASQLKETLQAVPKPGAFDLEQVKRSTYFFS

Row | SMILES | IC50
1 | Cc1ccccc1-c1c[nH]c(=O)c2cc(O[C@H](C)C(=O)N3CCC[C@H](C(N)=O)C3)ccc12 [Example 94, (S)-1-((R)-2-((1-oxo-4-(o-tolyl)-1,2-dihydroisoquinolin-7-yl)oxy)propanoyl)piperidine-3-carboxamide] | 70 nM
2 | C[C@@H](Oc1ccc2c(-c3ccc(F)cc3Cl)c[nH]c(=O)c2c1)C(=O)N1CCC(C(=O)O)CC1 [Example 64, (R)-1-(2-((4-(2-chloro-4-fluorophenyl)-1-oxo-1,2-dihydroisoquinolin-7-yl)oxy)propanoyl)piperidine-4-carboxylic acid] | 50 nM
3 | C[C@@H](Oc1ccc2c(-c3ccc(F)cc3Cl)c[nH]c(=O)c2c1)C(=O)N1CCO[C@H](C(N)=O)C1 [Example 132, (S)-4-((R)-2-((4-(2-chloro-4-fluorophenyl)-1-oxo-1,2-dihydroisoquinolin-7-yl)oxy)propanoyl)morpholine-2-carboxamide] | 400 nM
4 | C[C@@H](Oc1ccc2c(-c3ccc(F)cc3Cl)c[nH]c(=O)c2c1)C(=O)N1CCC[C@H](C#N)C1 [Example 87, (S)-1-((R)-2-((4-(2-chloro-4-fluorophenyl)-1-oxo-1,2-dihydroisoquinolin-7-yl)oxy)propanoyl)piperidine-3-carbonitrile] | 200 nM
5 | CCC(C)Oc1ccc2c(-c3ccccc3C)c[nH]c(=O)c2c1 (stereo not shown) [Example 5, 7-(sec-butoxy)-4-(o-tolyl)isoquinolin-1(2H)-one] | 200 nM

More lines, now with the values ahead:

Row | IC50 | SMILES
6 | 200 nM | Cc1c(F)cccc1-c1c[nH]c(=O)c2cc(OCC#N)ccc12 [Example 135, 2-((4-(3-fluoro-2-methylphenyl)-1-oxo-1,2-dihydroisoquinolin-7-yl)oxy)acetonitrile]
7 | 1000 nM | CCOC(=O)C(C)Cc1ccc2c(-c3ccccc3C)c[nH]c(=O)c2c1 (stereo not shown) [Example 40, ethyl 2-methyl-3-(1-oxo-4-(o-tolyl)-1,2-dihydroisoquinolin-7-yl)propanoate]
8 | 2000 nM | COCC(Oc1ccc2c(-c3ccccc3C)c[nH]c(=O)c2c1)C(=O)N(C)C (single isomer, unassigned) [Example 55, 3-methoxy-N,N-dimethyl-2-((1-oxo-4-(o-tolyl)-1,2-dihydroisoquinolin-7-yl)oxy)propenamide]
9 | 21000 nM | Cc1sccc1-c1c[nH]c(=O)c2cc(OCC(N)=O)ccc12 [Example 134, 2-((4-(2-methylthiophen-3-yl)-1-oxo-1,2-dihydroisoquinolin-7-yl)oxy)acetamide]
10 | 600 nM | CC(C#N)Oc1ccc2c(-c3ccc(F)cc3Cl)c[nH]c(=O)c2c1 (single isomer, unassigned) [Example 50, 2-((4-(2-chloro-4-fluorophenyl)-1-oxo-1,2-dihydroisoquinolin-7-yl)oxy)propanenitrile]
11 | > 100000 nM | COCC(Oc1ccc2c(-c3ccccc3C)c[nH]c(=O)c2c1)C(N)=O (single isomer, unassigned) [Example 52]

same assay, conditions: quinolinone compounds (Table 2)

Row | IC50 | SMILES
12 | 7000 nM | Cc1ccccc1-c1cc(=O)[nH]c2cc(O[C@H](C)C(=O)N3CCC(C(=O)O)CC3)ccc12 [Example Q14, (R)-1-(2-((2-oxo-4-(o-tolyl)-1,2-dihydroquinolin-7-yl)oxy)propanoyl)piperidine-4-carboxylic acid]
13 | 3000 nM | Cc1ccccc1-c1cc(=O)[nH]c2cc(O[C@H](C)C(=O)O)ccc12 [Example Q13, (R)-2-((2-oxo-4-(o-tolyl)-1,2-dihydroquinolin-7-yl)oxy)propanoic acid]
